Tests used:
[1] = Kinetic parameter Vmax against monoclonal antibody 16 G3
[2] = Kinetic parameter Kcat against monoclonal antibody 16 G3
[3] = Kinetic parameter KM against monoclonal antibody 16 G3
[4] = Kinetic parameter effective molarity against monoclonal antibody 16 G3
[5] = Kinetic parameter Kuncat against monoclonal antibody 16 G3
[6] = Substrate specificity, the ratio of Kcat to that of Km was determined against monoclonal antibody 16 G3

Row | Vmax [1] | k cat [2] | Km [3] | Molarity [4] | Kuncat [5] | Substrate specificity [6] | Compound
1 | 6 µM/min | 0.01 s⁻¹ | 100 µM | 15 M | 0.000667 M⁻¹ s⁻¹ | 6 | O=C(O)CCCC(=O)N[C@@H](Cc1ccccc1)C(=O)Oc1ccc([N+](=O)[O-])cc1
2 | 1 µM/min | 0.00167 s⁻¹ | 300 µM | 2 M | 0.000833 M⁻¹ s⁻¹ | 3 | O=C(O)CCCC(=O)N[C@H](C(=O)Oc1ccc([N+](=O)[O-])cc1)C1CCCCC1
3 | – | – | 900 µM | – | – | – | NC(=O)[C@H](N)Cc1c[nH]c2ccccc12

— ChEMBL document CHEMBL1145742, “Investigation of an antibody-ligase. Evidence for strain-induced catalysis” (Bioorg Med Chem Lett, 2003)
